In PMC3086806, “Mining a Cathepsin Inhibitor Library for New Antiparasitic Drug Leads” (PLoS Neglected Tropical Diseases, 2011):

Tests used:
[1] = molecular target: T1, rhodesain (Trypanosoma brucei rhodesiense, UniProt Q95PM0); assay: Rhodesain protease inhibition assay (Z-Phe-Arg-AMC); format: biochemical; details: for Fold more potent inhibition of rhodesain than TbCatB: rhodesain vs TbCatB IC50
T1 construct: made in house
Experimental: Recombinant cruzain, rhodesain, TbCatB, falcipain-2 and falcipain-3 were expressed as described previously, [39], [40], [41], [42]. Inhibitor stock solutions were prepared in DMSO and screened at 0.1 µM for cruzain and rhodesain, 1 µM for TbCatB and 50 nM for falcipain-3 (0.5% DMSO in assay). […] Protease inhibition assays for cruzain and rhodesain were carried out in 96 well plate format as described previously. Cruzain (4 nM), rhodesain (4 nM) or TbCatB (258 nM) was incubated with test compound in 100 mM sodium acetate, pH 5.5, containing 5 mM DTT and 0.01% Triton X-100 (buffer A), for 5 min at room temperature (the higher concentration of TbCatB was required due to its lower intrinsic activity against the fluorogenic substrate). Then buffer A containing Z-Phe-Arg-AMC (Bachem) was added to enzyme-compound mixture to give 10 µM substrate in a final assay volume of 200 µL. The rate of free AMC release was measured at excitation and emission wavelengths of 355 and 460 nm, respectively, with a microtiter plate spectrofluorimeter (SpectraMax M5, Molecular Devices) for 3 min. Percentage inhibition of test compound was calculated relative to the DMSO control (0% inhibition control). IC50 values were determined with Prism 4 software (GraphPad, San Diego, CA) using sigmoidal dose-response variable slope model.

[2] = system: T. brucei brucei clone 427-221a bloodstream forms; assay: T. brucei brucei growth inhibition assay; format: cell-based; details: Trypanosoma brucei; 40 hours
Experimental: The growth inhibition assay for T. brucei brucei was conducted as described previously. Bloodstream forms of the monomorphic T. brucei brucei clone 427-221a were grown in complete HMI-9 medium containing 10% FBS, 10% Serum Plus medium (Sigma Inc. St. Louis Mo. USA), 50 U/mL penicillin and 50 µg/mL streptomycin (Invitrogen) at 37°C under a humidified atmosphere and 5% CO2. […] 5 µL of each dilution was added to 95 µL of diluted parasites (1×10^4 cells per well) in sterile Greiner 96-well flat white opaque culture plates such that the final DMSO concentration was 0.5%. The 0% inhibition control wells contained 0.5% DMSO while 100% inhibition control wells contained 50 µM thimerosal (Sigma). After compound addition, plates were incubated for 40 hours at 37°C. At the end of the incubation period, 50 µL of CellTiter-Glo™ reagent (Promega Inc., Madison, WI, USA) was added to each well and plates were placed on an orbital shaker at room temperature for 2 min to induce lysis. After an additional 10 min incubation without shaking to stabilize the signal, the ATP-bioluminescence of each well was determined using an Analyst HT plate reader (Molecular Devices, Sunnyvale, CA, USA). Raw values were converted to log10 and percentage inhibition calculated relative to the controls. IC50 curve fittings were performed with Prism 4 software as above.

[3] = system: intracellular T. cruzi (CA-I/72) in BESM cells; assay: T. cruzi amastigote growth inhibition assay; format: cell-based; details: Trypanosoma cruzi; infected BESM cells, 72 hours
Experimental: The growth inhibition assay for the intracellular T. cruzi was conducted in 96-well plate format as described previously. Briefly, bovine embryo skeletal muscle (BESM) cells (2×10^3/well), seeded overnight, were infected with CA-I/72 T. cruzi trypomastigotes (2×10^3/well). Sixteen hours post-infection, test compounds (serial dilution concentrations starting from 20 µM) were added and assay plates were incubated for an additional 72 hours at 37°C with 5% CO2. Cells were then washed once in PBS, fixed with 4% paraformaldehyde and stained with DNA fluorescent dye DAPI (4′ 6-diamidino-2-phenylindole). The assay plates were then imaged in the IN Cell Analyzer 2000 (GE Healthcare) with the excitation and emission filters set of 350 nm and 460 nm, respectively, to detect DAPI signals. The feature extraction module in IN Cell Developer Toolbox 1.7 software was used to count host nuclei and parasite kinetoplasts by size difference.

[4] = Jurkat cell cytotoxicity assay; format: cell-based; details: human, Jurkat cells (clone E6-1), read-out: Cytotoxicity (% inhibition at 10 µM) Jurkat cells
Experimental: Jurkat cells (clone E6-1) were grown in complete RPMI-1640 medium containing 10% FBS, 50 U/mL penicillin and 50 µg/mL streptomycin (Invitrogen) at 37°C under a humidified atmosphere and 5% CO2. For cytotoxicity testing, cells were diluted to 1×10^5 per ml in complete RPMI-1640 medium. Test compound stocks were prepared in 100% DMSO and screened at 10 µM against cells (1×10^4 cells per well) in sterile Greiner 96-well flat white opaque culture plates (0.5% final DMSO concentration). The 0% inhibition control wells contained 0.5% DMSO while 100% inhibition control wells contained 40 µM staurosporine. After compound addition, plates were incubated for 40 hr at 37°C. At the end of the incubation period, 50 µL of CellTiter-Glo™ reagent (Promega Inc., Madison, WI, USA) was added to each well and plates were placed on an orbital shaker at room temperature for 2 min to induce lysis. After a further 10 min incubation without shaking to stabilize the signal, the ATP-bioluminescence of each well was determined using an Analyst HT plate reader (Molecular Devices, Sunnyvale, CA, USA). Calculations of percentage inhibition and IC50 were performed similar to those in the T. brucei brucei assay.

[5] = molecular target: human cathepsin L; design: method as in data provided by Celera Genomics; details: historical data; ref data provided by Celera Genomics; read-out: Ki catL; cited from earlier work

T1 sequence (Q95PM0 entry or part of it): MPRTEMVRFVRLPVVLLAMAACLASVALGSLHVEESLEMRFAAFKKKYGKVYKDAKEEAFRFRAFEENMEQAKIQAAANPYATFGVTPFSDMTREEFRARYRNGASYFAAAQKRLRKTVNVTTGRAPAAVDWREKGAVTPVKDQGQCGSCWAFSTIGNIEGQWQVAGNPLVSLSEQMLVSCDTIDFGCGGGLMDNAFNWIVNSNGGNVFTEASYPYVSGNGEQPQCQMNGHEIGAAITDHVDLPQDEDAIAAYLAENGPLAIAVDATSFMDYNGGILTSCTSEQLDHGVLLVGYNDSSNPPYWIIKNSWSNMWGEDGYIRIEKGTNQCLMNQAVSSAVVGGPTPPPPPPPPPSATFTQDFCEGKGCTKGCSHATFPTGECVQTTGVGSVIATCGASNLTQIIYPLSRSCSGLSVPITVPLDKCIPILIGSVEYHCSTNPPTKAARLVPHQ

Row | SMILES | IC50 [1] | Fold more potent inhibition of rhodesain than TbCatB [1] | GI50 [2] | GI50 [3] | cytotoxicity at 40 h, 10 µM [4] | Ki [5]
1 | CCCCC(NC(=O)C(CC(C)C)NC(=O)N1CCOCC1)C(=O)c1nc2ccccc2o1 (stereo not drawn) [Compound 19a] | 1 nM | ~1000 fold | > 25 µM | 20 µM | < 5% | 26 nM
2 | CCCCC(NC(=O)C(Cc1ccccc1)NC(=O)N1CCOCC1)C(=O)c1nc2ccccc2o1 (stereo not drawn) [Compound 19b] | 1 nM | ~1000 fold | > 25 µM | 10.9 µM | < 5% | 180 nM
